Test results published in PubChem BioAssay AID1259408 (Genetic Toxicology Data Bank (GENE-TOX), 2018).
Active and inactive are the calls of the source. How the calls were made is not given here.

System: GENE-TOX genotoxicity assays, various organisms and cells
Experiment: GENE-TOX mutagenicity studies
Details: for call: Assay Type: In vivo carcinogenicity studies
[1] = Species/Cell Type: Nonhuman, Assay Code: CCG+, Evaluation Type: Evaluation A (Pre-1980)
[2] = Species/Cell Type: Human lymphocytes, Assay Type: Sister-chromatid exchange (SCE) in vitro, Assay Code: SCL+D, Dose Response: With dose response, Evaluation Type: Evaluation B (Post-1980)
[3] = Species/Cell Type: Human, Assay Type: Sister-chromatid exchange (SCE) in vitro, Assay Code: SC1+D, Dose Response: With dose response, Evaluation Type: Evaluation B (Post-1980)

**Q.** How did the mutagenic call (Species/Cell Type: Arabidopsis species, Assay Type: Gene mutation, Assay Code: ARM+, Evaluation Type: Evaluation A (Pre-1980)) turn out when `COS(C)(=O)=O` was run?
**A.** active; positive

**Q.** What about the mutagenic call (Species/Cell Type: Aspergillus nidulans, Assay Type: Reverse gene mutation, Assay Code: ASR+, Evaluation Type: Evaluation A (Pre-1980)) of the same compound?
**A.** active; positive

**Q.** And the mutagenic call (Species/Cell Type: Chinese hamster lung (V79) cells, Assay Type: Forward gene mutation at the HPRT or ouabain locus, Assay Code: V79+, Evaluation Type: Evaluation A (Pre-1980))?
**A.** active; positive

**Q.** What about the mutagenic call (Species/Cell Type: Chinese hamster ovary (CHO) cells, Assay Type: Forward gene mutation at the HPRT locus, Assay Code: CHO+D, Dose Response: With dose response, Evaluation Type: Evaluation A (Pre-1980)) of the same compound?
**A.** active; positive

**Q.** What about the mutagenic call (Species/Cell Type: Drosophila melanogaster, Assay Type: Sex-linked recessive lethal gene mutation, Assay Code: SRL+, Evaluation Type: Evaluation A (Pre-1980)) of the same compound?
**A.** active; positive

**Q.** What about the mutagenic call (Species/Cell Type: Drosophila melanogaster, Sex: Male, Assay Type: Heritable translocation test, chromosome aberrations, Assay Code: DHT+, Evaluation Type: Evaluation A (Pre-1980)) of the same compound?
**A.** active; positive

**Q.** And the mutagenic call (Species/Cell Type: Escherichia coli WP2, Assay Type: Tryptophan reverse gene mutation, Assay Code: WP2+D, Dose Response: With dose response, Evaluation Type: Evaluation A (Pre-1980))?
**A.** active; positive

**Q.** And the mutagenic call (Species/Cell Type: Escherichia coli WP2 UVRA, Assay Type: Tryptophan reverse gene mutation, Assay Code: WPU+D, Dose Response: With dose response, Evaluation Type: Evaluation A (Pre-1980))?
**A.** active; positive

**Q.** What about the mutagenic call (Species/Cell Type: Escherichia coli polA (W3119 vs P3478), Assay Type: Rec-assay, DNA effects (bacterial DNA repair), Assay Code: RE1+, Evaluation Type: Evaluation A (Pre-1980)) of the same compound?
**A.** active; positive

**Q.** And the mutagenic call (Species/Cell Type: Escherichia coli, Saccharomyces cerevisiae, Neurospora crassa, human lymphoid cells, Assay Type: Forward and reverse gene mutation, lethal mutation, mitotic recombination and gene conversion, chromosome effects, DNA e, Assay Code: HM9+, Evaluation Type: Evaluation A (Pre-1980))?
**A.** active; positive

**Q.** What about the mutagenic call (Species/Cell Type: F1 mouse, Sex: Male, Assay Type: Sperm morphology, Assay Code: SPFT, Evaluation Type: Evaluation A (Pre-1980)) of the same compound?
**A.** no conclusion

**Q.** What about the mutagenic call (Species/Cell Type: Glycine max (soybean), Assay Type: Gene mutation, Assay Code: GLM+, Evaluation Type: Evaluation A (Pre-1980)) of the same compound?
**A.** active; positive

**Q.** What about the mutagenic call (Species/Cell Type: Hordeum vulgare (barley), Assay Type: Chromosome aberrations, Assay Code: HOC+, Evaluation Type: Evaluation A (Pre-1980)) of the same compound?
**A.** active; positive

**Q.** What about the mutagenic call (Species/Cell Type: Hordeum vulgare (barley), Assay Type: Gene mutation, Assay Code: HOM+D, Dose Response: With dose response, Evaluation Type: Evaluation A (Pre-1980)) of the same compound?
**A.** active; positive

**Q.** What about the mutagenic call (Species/Cell Type: Human diploid fibroblasts, Assay Type: Unscheduled DNA synthesis (UDS) in vitro, DNA effects, Assay Code: UDH+D, Dose Response: With dose response, Evaluation Type: Evaluation A (Pre-1980)) of the same compound?
**A.** active; positive

**Q.** And the mutagenic call (Species/Cell Type: Human lymphocytes or leukocytes, Assay Type: Chromosome aberrations in vivo, Assay Code: CY8+, Evaluation Type: Evaluation A (Pre-1980))?
**A.** active; positive

**Q.** What about the mutagenic call (Species/Cell Type: Human lymphocytes, Assay Type: Micronucleus test in vitro, chromosome aberrations, Assay Code: MN7+, Evaluation Type: Evaluation A (Pre-1980)) of the same compound?
**A.** active; positive

**Q.** And the mutagenic call (Species/Cell Type: Human lymphocytes, Assay Type: Sister-chromatid exchange (SCE) in vitro, Assay Code: SCL+, Evaluation Type: Evaluation A (Pre-1980))?
**A.** active; positive

**Q.** What about the mutagenic call (Species/Cell Type: Human, Assay Type: Sister-chromatid exchange (SCE) in vitro, Assay Code: SC1+D, Dose Response: With dose response, Evaluation Type: Evaluation A (Pre-1980)) of the same compound?
**A.** active; positive

**Q.** And the mutagenic call (Species/Cell Type: Mammalian germ cells, Sex: Male, Assay Type: Chromosome aberrations in vivo, Assay Code: CY9+, Evaluation Type: Evaluation A (Pre-1980))?
**A.** active; positive

**Q.** What about the mutagenic call (Species/Cell Type: Mammalian oocytes or early embryo, Assay Type: Chromosome aberrations in vivo, Assay Code: CYO+D, Dose Response: With dose response, Evaluation Type: Evaluation A (Pre-1980)) of the same compound?
**A.** active; positive

**Q.** What about the mutagenic call (Species/Cell Type: Mammalian polychromatic erythrocytes, Assay Type: Micronucleus test, chromosome aberrations, Assay Code: MNT+, Evaluation Type: Evaluation A (Pre-1980)) of the same compound?
**A.** active; positive

**Q.** What about the mutagenic call (Species/Cell Type: Mouse germ cells, Sex: Male, Assay Type: Unscheduled DNA synthesis (UDS) in vivo, DNA effects, Assay Code: UDT+, Evaluation Type: Evaluation A (Pre-1980)) of the same compound?
**A.** active; positive

**Q.** And the mutagenic call (Species/Cell Type: Mouse lymphoma (L5178Y) cells, Assay Type: Forward gene mutation at the thymidine kinase (TK) locus, chromosome aberrations, Assay Code: L51+, Evaluation Type: Evaluation A (Pre-1980))?
**A.** active; positive

**Q.** What about the mutagenic call (Species/Cell Type: Mouse, Sex: Female, Assay Type: Spot test, gene mutation, Assay Code: MST+, Evaluation Type: Evaluation A (Pre-1980)) of the same compound?
**A.** active; positive

**Q.** What about the mutagenic call (Species/Cell Type: Mouse, Sex: Male, Assay Type: Heritable translocation test, chromosome aberrations, Assay Code: HTT+, Evaluation Type: Evaluation A (Pre-1980)) of the same compound?
**A.** active; positive

**Q.** What about the mutagenic call (Species/Cell Type: Mouse, Sex: Male, Assay Type: Specific locus test, gene mutation, Assay Code: SLT+, Evaluation Type: Evaluation A (Pre-1980)) of the same compound?
**A.** active; positive

**Q.** And the mutagenic call (Species/Cell Type: Mouse, Sex: Male, Assay Type: Sperm morphology, Assay Code: SPI+, Evaluation Type: Evaluation A (Pre-1980))?
**A.** active; positive

**Q.** What about the mutagenic call (Species/Cell Type: Neurospora crassa, Assay Type: Forward gene mutation, Assay Code: NEF+, Evaluation Type: Evaluation A (Pre-1980)) of the same compound?
**A.** active; positive

**Q.** And the call [1]?
**A.** active; positive

**Q.** And the mutagenic call (Species/Cell Type: Nonhuman, Assay Type: Sister-chromatid exchange (SCE) in vitro, Assay Code: SC2+D, Dose Response: With dose response, Evaluation Type: Evaluation A (Pre-1980))?
**A.** active; positive

**Q.** What about the mutagenic call (Species/Cell Type: Nonhuman, Assay Type: Sister-chromatid exchange (SCE) in vivo, Assay Code: SC3+D, Dose Response: With dose response, Evaluation Type: Evaluation A (Pre-1980)) of the same compound?
**A.** active; positive

**Q.** And the mutagenic call (Species/Cell Type: Rabbit, Sex: Male, Assay Type: Sperm morphology, Assay Code: SPRT, Evaluation Type: Evaluation A (Pre-1980))?
**A.** no conclusion

**Q.** What about the mutagenic call (Species/Cell Type: Rat primary hepatocytes, Assay Type: Unscheduled DNA synthesis (UDS) in vitro, DNA effects, Assay Code: UDP+, Evaluation Type: Evaluation A (Pre-1980)) of the same compound?
**A.** active; positive

**Q.** And the mutagenic call (Species/Cell Type: Rodents, Sex: Male, Assay Type: Dominant lethal test, Assay Code: DLT+D, Dose Response: With dose response, Evaluation Type: Evaluation A (Pre-1980))?
**A.** active; positive

**Q.** What about the mutagenic call (Species/Cell Type: Saccharomyces cerevisiae, Assay Type: Forward gene mutation, Assay Code: YEF+, Evaluation Type: Evaluation A (Pre-1980)) of the same compound?
**A.** active; positive

**Q.** What about the mutagenic call (Species/Cell Type: Saccharomyces cerevisiae, Assay Type: Mitotic recombination or gene conversion, Assay Code: YEC+, Evaluation Type: Evaluation A (Pre-1980)) of the same compound?
**A.** active; positive

**Q.** And the mutagenic call (Species/Cell Type: Saccharomyces cerevisiae, Assay Type: Mitotic recombination or gene conversion, Assay Code: YEH+, Evaluation Type: Evaluation A (Pre-1980))?
**A.** active; positive

**Q.** And the mutagenic call (Species/Cell Type: Saccharomyces cerevisiae, Assay Type: Reverse gene mutation, Assay Code: YER+, Evaluation Type: Evaluation A (Pre-1980))?
**A.** active; positive

**Q.** And the mutagenic call (Species/Cell Type: Salmonella typhimurium (one or more of the five standard strains: TA98, TA100, TA1535, TA1537, and TA1538), Assay Type: Histidine reverse gene mutation, Ames assay, Assay Code: SAL+, Evaluation Type: Evaluation A (Pre-1980))?
**A.** active; positive

**Q.** And the mutagenic call (Species/Cell Type: Salmonella typhimurium, Assay Type: Forward and reverse gene mutation, body fluid assay, Assay Code: BFU-, Evaluation Type: Evaluation A (Pre-1980))?
**A.** inactive; negative

**Q.** What about the mutagenic call (Species/Cell Type: Schizosaccharomyces pombe, Assay Type: Forward gene mutation, Assay Code: YEY+, Evaluation Type: Evaluation A (Pre-1980)) of the same compound?
**A.** active; positive

**Q.** What about the mutagenic call (Species/Cell Type: Schizosaccharomyces pombe, Assay Type: Reverse gene mutation, Assay Code: YEZ+, Evaluation Type: Evaluation A (Pre-1980)) of the same compound?
**A.** active; positive

**Q.** And the mutagenic call (Species/Cell Type: Syrian hamster embryo (SA7/SHE) cells, Assay Type: Cell transformation, viral enhanced, Assay Code: CT7+, Evaluation Type: Evaluation A (Pre-1980))?
**A.** active; positive

**Q.** And the mutagenic call (Species/Cell Type: Syrian hamster embryo (SHE) cells, Assay Type: Cell transformation, focus assay, Assay Code: CTF+, Evaluation Type: Evaluation A (Pre-1980))?
**A.** active; positive

**Q.** What about the mutagenic call (Species/Cell Type: Vicia faba, Assay Type: Chromosome aberrations, Assay Code: VIC+D, Dose Response: With dose response, Evaluation Type: Evaluation A (Pre-1980)) of the same compound?
**A.** active; positive

**Q.** Which results are given for `Cc1nc(NO)cc2[nH]c3ccccc3c12`?
**A.** mutagenic call [2]: active; positive; mutagenic call [3]: active; positive

**Q.** `CCC(=O)Oc1ccc2c(c1)CC[C@@H]1[C@@H]2CC[C@]2(C)[C@@H](OC(=O)CC)CC[C@@H]12` was tested. Which mutagenic call (Species/Cell Type: Rat, Sex: Male, Assay Type: Sperm morphology, Assay Code: SPA+, Evaluation Type: Evaluation A (Pre-1980)) did it give?
**A.** active; positive

**Q.** Which mutagenic call [2] does the source give for `OCc1ccn2c1[C@H](O)CC2` here?
**A.** active; positive

**Q.** And the mutagenic call [3]?
**A.** active; positive

**Q.** How did the mutagenic call (Species/Cell Type: Fischer rat embryo (RLV/1706) cells, Assay Type: Cell transformation, viral enhanced, Assay Code: CTR-, Evaluation Type: Evaluation A (Pre-1980)) turn out when `COC1=C2C[C@@H](C)C[C@H](OC)[C@H](O)[C@@H](C)/C=C(\C)[C@H](OC(N)=O)[C@@H](OC)/C=C\C=C(/C)C(=O)NC(=CC1=O)C2=O` was run?
**A.** inactive; negative

**Q.** How did the mutagenic call (Species/Cell Type: Chinese hamster lung (V79) cells, Assay Type: Forward gene mutation at the HPRT or ouabain locus, Assay Code: V79-*, Activation: With metabolic activation, Evaluation Type: Evaluation A (Pre-1980)) turn out when `Cc1c2ccccc2c(C)c2c1ccc1cccc(C)c12` was run?
**A.** inactive; negative

**Q.** What does the source list for `O=[N+]([O-])c1ccc(C2CO2)cc1` (stereo not drawn)?
**A.** mutagenic call [2]: active; positive; mutagenic call [3]: active; positive

**Q.** Which call [1] does the source give for `Nc1ccc(Cc2ccc(N)cc2)cc1` here?
**A.** active; positive

**Q.** And the mutagenic call (Species/Cell Type: Nonhuman, Assay Type: Sister-chromatid exchange (SCE) in vivo, Assay Code: SC3+, Evaluation Type: Evaluation B (Post-1980))?
**A.** active; positive

**Q.** With `O[C@H]1c2ccccc2-c2cc3ccccc3cc2[C@@H]1O` as the compound, how does the mutagenic call (Species/Cell Type: Chinese hamster lung (V79) cells, Assay Type: Forward gene mutation at the HPRT or ouabain locus, Assay Code: V79-, Evaluation Type: Evaluation A (Pre-1980)) read?
**A.** inactive; negative

**Q.** And the mutagenic call (Species/Cell Type: Mouse prostate cells, Assay Type: Cell transformation, Assay Code: CTM-, Evaluation Type: Evaluation A (Pre-1980))?
**A.** inactive; negative

**Q.** What about the call (Species/Cell Type: Nonhuman, Assay Code: CCGT, Evaluation Type: Evaluation A (Pre-1980)) of the same compound?
**A.** no conclusion

**Q.** And the mutagenic call (Species/Cell Type: Nonhuman, Assay Type: Sister-chromatid exchange (SCE) in vitro, Assay Code: SC2+D, Dose Response: With dose response, Evaluation Type: Evaluation B (Post-1980))?
**A.** active; positive

**Q.** And the mutagenic call (Species/Cell Type: Salmonella typhimurium (one or more of the five standard strains: TA98, TA100, TA1535, TA1537, and TA1538), Assay Type: Histidine reverse gene mutation, Ames assay, Assay Code: SALT, Evaluation Type: Evaluation A (Pre-1980))?
**A.** no conclusion

**Q.** And the mutagenic call (Species/Cell Type: Syrian hamster embryo (SHE) cells, Assay Type: Cell transformation, clonal assay, Assay Code: CTC+, Evaluation Type: Evaluation A (Pre-1980))?
**A.** active; positive
